Test results as given in paper PMC11648822, “Lactam Truncation Yields a Dihydroquinazolinone Scaffold with Potent Antimalarial Activity that Targets PfATP4” (Chemmedchem, 2024).
Values after ≈ are worked out from the molar mass of the structure shown. Marks after values point to notes of the source that are not given here.

What was measured:
[1] = tested on: P. falciparum (Pf) 3D7 parasites; experiment: P. falciparum LDH viability assay; assay type: cell-based; details: Plasmodium falciparum, 3D7, 72 h, LDH activity at 72 h; mean and SD of 3 independent experiments
Text: This assay is a platform assay conducted at the Walter and Eliza Hall Institute and uses a protocol previously decsribed.[30, 31]

[2] = Human HepG2 cytotoxicity assay (Cell Titre Glo); assay type: cell-based; details: HepG2 cells, growth inhibition at 48 h, 4 replicate experiments, read-out: HepG2 CC50 (SD)
Text: This assay uses Cell TitreGlo as a metabolic maker for human HepG2 cell growth and uses a protocol previously described.[32]

[3] = eLogD shake-flask method; assay type: physicochemical
Text: (§1) Human liver microsome stability, rat hepatocyte stability, aqueous solubility and eLogD are platform assays conducted by TCG Lifesciences and undertaken using previously described protocols.[10]

[4] = Aqueous solubility (pH 7.4); assay type: physicochemical
Text: as §1

[5] = Rat hepatocyte stability; assay type: in vitro ADME; details: rat hepatocytes; for hepatocyte CLint: read-out: Rat Hep CLint
Text: as §1

[6] = Human liver microsome stability; assay type: in vitro ADME; details: human liver microsomes; for microsomal CLint: read-out: HLM CLint
Text: as §1

[7] = target: T1, PfATP4 (membranes prepared from 3D7 parasites) (Plasmodium falciparum, UniProt A0A143ZZK9); experiment: PfATP4 Na+ assay (membrane ATPase), 3D7 membranes; assay type: biochemical, P. falciparum; details: 50 nM; any of the conditions tested; negative control
T1 construct: The membranes were prepared from isolated trophozoite‐stage 3D7 parasites; endogenous in cells; host or cells: P. falciparum 3D7 trophozoites (membrane preparation)
Protocol: Figure 4 Dihydroquinazolinone analogs 14 and 36 (WJM062) inhibit Na^+‐ATPase activity in membranes prepared from isolated P. falciparum parasites, consistent with them being PfATP4 inhibitors. (A) The effects of dihydroquinazolinone compounds (2 μM), dihydroartemisinin (DHA; 50 nM; negative control) and 0.2 % v/v DMSO (solvent‐only control) on membrane ATPase activity under high‐[Na^+] conditions (152 mM Na^+) and low‐[Na^+] conditions (2 mM Na^+; stemming from the addition of 1 mM Na2ATP) in the presence and absence of the PfATP4 inhibitor cipargamin (50 nM). The membranes were prepared from isolated trophozoite‐stage 3D7 parasites. The Pi produced is expressed as a percentage of that measured in the 152 mM Na^+ Control. The data are from four independent experiments performed with different membrane preparations; the symbols show the data from individual experiments and the bars show the mean (+SEM). In individual experiments, the Pi produced in the 152 mM Na^+ Control varied from 66 to 96 nmol per mg (total) protein per min. A repeated measures ANOVA with a post hoc Tukey test was used to compare the (pre‐normalised) data for different compounds and conditions. For comparisons between different conditions for the same test compound (or for the Control), significant differences are shown with black asterisks. For comparisons between the Control and a compound under the same test condition, significant differences are shown with coloured asterisks (in this case, grey asterisks, as the only significant differences were between the control and the dihydroquinazolinone compounds in the 152 mM Na^+ condition). ***P<0.001. (B) Concentration‐dependence of the effects of dihydroquinazolinone compounds on PfATP4‐associated ATPase activity in membranes prepared from 3D7 parasites. The data are the mean (shown + or − SEM) obtained from four independent experiments performed with different membrane preparations, with the exception of the lowest and second‐lowest concentrations of the compounds, for which data are from two and three independent experiments, respectively. (C and D) Potency of dihydroquinazolinone compounds against PfATP4‐associated ATPase activity in membranes prepared from Dd2‐Polδ‐PfATP4^G358S parasites (open triangles) and their Dd2‐Polδ parents (closed triangles). The data are the mean (shown + or − SEM) from four (C) or three (D) independent experiments. In B−D, the Pi production measured in the low‐[Na^+] (2 mM) condition was subtracted from that measured in high‐[Na^+] (152 mM) in the presence of each of the different concentrations of dihydroquinazolinone compounds to calculate the PfATP4‐associated ATPase activity. The PfATP4‐associated ATPase activity is expressed as a percentage of that obtained for the high‐[Na^+] (152 mM) Control.
Membrane ATPase assays were performed using a PiColorLock Gold Phosphate Detection System (Innova Biosciences), essentially as described previously.[25] Membranes were prepared either from isolated 3D7 trophozoites or from isolated Dd2‐Polδ‐PfATP4^G358S [22] and Dd2‐Polδ trophozoites.[26]

[8] = aqueous medium at pH 7.4, pH 7.4, aqueous buffer
[9] = aqueous medium (pH 7.4; buffer not named), pH 7.4, aqueous buffer
[10] = aqueous medium at pH 7.4 (buffer not named), pH 7.4, aqueous buffer

T1 sequence (A0A143ZZK9 whole entry): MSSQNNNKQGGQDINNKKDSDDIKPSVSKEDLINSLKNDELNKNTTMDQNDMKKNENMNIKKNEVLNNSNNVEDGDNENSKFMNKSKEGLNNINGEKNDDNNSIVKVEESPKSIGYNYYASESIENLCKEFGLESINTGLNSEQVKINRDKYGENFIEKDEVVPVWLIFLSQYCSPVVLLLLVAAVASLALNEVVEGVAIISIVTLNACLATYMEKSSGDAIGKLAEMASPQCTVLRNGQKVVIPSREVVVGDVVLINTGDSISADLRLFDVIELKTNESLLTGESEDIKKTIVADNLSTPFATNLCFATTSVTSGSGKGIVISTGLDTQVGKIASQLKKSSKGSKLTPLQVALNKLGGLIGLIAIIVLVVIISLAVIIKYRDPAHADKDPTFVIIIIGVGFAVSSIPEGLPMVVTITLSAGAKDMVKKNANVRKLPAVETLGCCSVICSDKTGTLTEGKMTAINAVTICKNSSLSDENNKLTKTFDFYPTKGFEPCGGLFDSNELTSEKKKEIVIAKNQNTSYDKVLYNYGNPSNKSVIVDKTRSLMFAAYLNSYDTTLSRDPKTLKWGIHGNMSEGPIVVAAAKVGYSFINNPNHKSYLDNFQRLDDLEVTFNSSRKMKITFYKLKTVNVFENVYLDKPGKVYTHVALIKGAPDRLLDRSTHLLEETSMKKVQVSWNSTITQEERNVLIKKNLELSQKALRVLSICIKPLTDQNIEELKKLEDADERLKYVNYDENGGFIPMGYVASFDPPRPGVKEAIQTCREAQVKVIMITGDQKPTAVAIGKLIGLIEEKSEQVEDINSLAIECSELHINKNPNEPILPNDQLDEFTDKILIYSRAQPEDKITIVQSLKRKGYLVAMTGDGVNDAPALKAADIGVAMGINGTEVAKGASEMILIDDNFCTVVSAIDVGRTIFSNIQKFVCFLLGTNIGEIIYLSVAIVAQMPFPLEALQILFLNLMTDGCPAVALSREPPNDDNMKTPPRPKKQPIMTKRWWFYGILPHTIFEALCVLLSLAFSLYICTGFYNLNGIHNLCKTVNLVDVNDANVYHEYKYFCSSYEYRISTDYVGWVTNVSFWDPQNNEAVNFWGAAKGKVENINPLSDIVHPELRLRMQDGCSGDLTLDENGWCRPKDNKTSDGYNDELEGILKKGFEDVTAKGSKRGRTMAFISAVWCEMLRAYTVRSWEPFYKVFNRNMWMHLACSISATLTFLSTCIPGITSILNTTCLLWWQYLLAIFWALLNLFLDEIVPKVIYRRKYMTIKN

Row | Compound | EC50 [1] | CC50 at 48 h [2] | hepatocyte CLint [5] | microsomal CLint [6] | also measured
1 | CN1C(=O)c2ccc(-c3cccnc3)cc2NC1(C)C(=O)Nc1cncc(Cl)c1 (stereo not drawn) [Compound 29, N‐(5‐Chloropyridin‐3‐yl)‐2,3‐dimethyl‐4‐oxo‐7‐(pyridin‐3‐yl)‐1,2,3,4‐tetrahydroquinazoline‐2‐carboxamide] | 148 nM | > 40000 nM | – | – | –
2 | COc1ccc2c(c1)NC(C)(C(=O)Nc1cncc(Cl)c1)N(C)C2=O (stereo not drawn) [Compound 34, N‐(5‐Chloropyridin‐3‐yl)‐7‐methoxy‐2,3‐dimethyl‐4‐oxo‐1,2,3,4‐tetrahydroquinazoline‐2‐carboxamide] | 74 nM | – | 16 µL/min/1e6 cells | 35 µL/min/mg | logD [3]: 2.7; solubility [4, 8]: 13.5 µM (≈ 4.87 µg/mL)
3 | COc1ccc(-c2ccc3c(c2)NC(C)(C(=O)Nc2cncc(Cl)c2)N(C)C3=O)cn1 (stereo not drawn) [Compound 30, N‐(5‐Chloropyridin‐3‐yl)‐7‐(6‐methoxypyridin‐3‐yl)‐2,3‐dimethyl‐4‐oxo‐1,2,3,4‐tetrahydroquinazoline‐2‐carboxamide] | 143 nM | > 40000 nM | – | – | –
4 | C[C@H]1[C@@H](O)O[C@@H]2O[C@@]3(C)CC[C@H]4[C@H](C)CC[C@@H]1[C@@]24OO3 [dihydroartemisinin, reference compound] | – | – | – | – | effect on membrane ATPase activity [7]: no effect
5 | CN1C(=O)c2ccc(Cl)cc2N(C)C1(C)C(=O)Nc1cccc(Cl)c1 (stereo not drawn) [Compound 12, 7‐Chloro‐N‐(3‐chlorophenyl)‐1,2,3‐trimethyl‐4‐oxo‐1,2,3,4‐tetrahydroquinazoline‐2‐carboxamide] | 115 nM | > 40000 nM | 124 µL/min/1e6 cells | 122 µL/min/mg | eLogD [3]: 3.9^[d]; solubility [4, 9]: 2.6 µM (≈ 0.983 µg/mL); solubility [4, 10]: < 5.2 µM
6 | 7‐Chloro‐N‐(5‐chloropyridin‐3‐yl)‐3‐methyl‐4‐oxo‐2‐(3‐oxo‐3‐(piperazin‐1‐yl)propyl)‐1,2,3,4‐tetrahydroquinazoline‐2‐carboxamide [Compound 22] | – | – | – | – | eLogD [3]: 1.7^[d]; solubility ([4]; pH 7.4): 178 µM; Rat Hep CLint [5]: 7.7 μL/min/10^6 cells; HLM CLint [6]: 94 µL/min/mg
7 | CN1C(=O)c2ccc3ncccc3c2NC1(C)C(=O)Nc1cncc(Cl)c1 (stereo not drawn) [Compound 26, N‐(5‐Chloropyridin‐3‐yl)‐2,3‐dimethyl‐4‐oxo‐1,2,3,4‐tetrahydropyrido[2,3‐h]quinazoline‐2‐carboxamide] | 90 nM | > 40000 nM | – | – | –
8 | CN1c2cc(Cl)ccc2C(=O)N(C2CC2)C1(C)C(=O)Nc1cncc(Cl)c1 (stereo not drawn) [Compound 17, 7‐Chloro‐N‐(5‐chloropyridin‐3‐yl)‐3‐cyclopropyl‐1,2‐dimethyl‐4‐oxo‐1,2,3,4‐tetrahydroquinazoline‐2‐carboxamide] | 23 nM | > 40000 nM | 47 µL/min/1e6 cells | 267 µL/min/mg | eLogD [3]: 3.2^[d]; solubility [4, 9]: 28 µM (≈ 11.3 µg/mL)
9 | CC1(C(=O)Nc2cncc(Cl)c2)Nc2cc(Cl)ccc2-c2nccn21 (stereo not drawn) [Compound 27, 8‐Chloro‐N‐(5‐chloropyridin‐3‐yl)‐5‐methyl‐5,6‐dihydroimidazo[1,2‐c]quinazoline‐5‐carboxamide] | 54 nM | > 40000 nM | 59 µL/min/1e6 cells | 110 µL/min/mg | logD [3]: 2.7; solubility [4, 10]: 84 µM (≈ 31.4 µg/mL)
10 | COc1cnc2c(c1)NC(C)(C(=O)Nc1cncc(Cl)c1)N(C)C2=O (stereo not drawn) [Compound 35, N‐(5‐Chloropyridin‐3‐yl)‐7‐methoxy‐2,3‐dimethyl‐4‐oxo‐1,2,3,4‐tetrahydropyrido[3,2‐d]pyrimidine‐2‐carboxamide] | 458 nM | > 40000 nM | – | – | –
11 | CN1C(=O)c2ccc(Cl)cc2N2CCCC12C(=O)Nc1cccc(Cl)c1 (stereo not drawn) [Compound 18, 8‐Chloro‐N‐(3‐chlorophenyl)‐4‐methyl‐5‐oxo‐2,3,4,5‐tetrahydropyrrolo[1,2‐a]quinazoline‐3a(1H)‐carboxamide] | 30 nM | > 40000 nM | – | – | –
12 | 7‐Chloro‐N‐(5‐chloropyridin‐3‐yl)‐3‐methyl‐2‐(3‐morpholino‐3‐oxopropyl)‐4‐oxo‐1,2,3,4‐tetrahydroquinazoline‐2‐carboxamide [Compound 21] | – | – | – | – | solubility ([4]; pH 7.4): 41 µM; Rat Hep CLint [5]: 23 μL/min/10^6 cells; HLM CLint [6]: 95 µL/min/mg
13 | CN1C(=O)c2ccc(-c3ccn(C)n3)cc2NC1(C)C(=O)Nc1cncc(Cl)c1 (stereo not drawn) [Compound 31, N‐(5‐Chloropyridin‐3‐yl)‐2,3‐dimethyl‐7‐(1‐methyl‐1H‐pyrazol‐3‐yl)‐4‐oxo‐1,2,3,4‐tetrahydroquinazoline‐2‐carboxamide] | 808 nM | > 40000 nM | – | – | –
14 | CCN1c2cc(Cl)ccc2C(=O)N(C)C1(C)C(=O)Nc1cccc(Cl)c1 (stereo not drawn) [Compound 13, 7‐Chloro‐N‐(3‐chlorophenyl)‐1‐ethyl‐2,3‐dimethyl‐4‐oxo‐1,2,3,4‐tetrahydroquinazoline‐2‐carboxamide] | 53 nM | > 40000 nM | – | – | –
15 | CC1(C(=O)Nc2cncc(Cl)c2)Nc2cc(Cl)ccc2C(=O)N1C1CC1 (stereo not drawn) [Compound 16, 7‐Chloro‐N‐(5‐chloropyridin‐3‐yl)‐3‐cyclopropyl‐2‐methyl‐4‐oxo‐1,2,3,4‐tetrahydroquinazoline‐2‐carboxamide] | 27 nM | > 40000 nM | 33 µL/min/1e6 cells | 172 µL/min/mg | eLogD [3]: 3.3^[d]; solubility [4, 9]: 7 µM (≈ 2.74 µg/mL)
16 | 7‐Chloro‐N‐(5‐chloropyridin‐3‐yl)‐3‐methyl‐2‐(3‐(4‐methylpiperazin‐1‐yl)‐3‐oxopropyl)‐4‐oxo‐1,2,3,4‐tetrahydroquinazoline‐2‐carboxamide [Compound 23] | – | – | – | – | eLogD [3]: 2.8^[d]; solubility ([4]; pH 7.4): 9.6 µM; Rat Hep CLint [5]: 16 μL/min/10^6 cells; HLM CLint [6]: 155 µL/min/mg
17 | CC1(C(=O)Nc2cncc(Cl)c2)Nc2cc(Cl)ccc2C2=NCCN21 (stereo not drawn) [Compound 28, 8‐Chloro‐N‐(5‐chloropyridin‐3‐yl)‐5‐methyl‐2,3,5,6‐tetrahydroimidazo[1,2‐c]quinazoline‐5‐carboxamide] | – | – | 8.8 µL/min/1e6 cells | 37 µL/min/mg | logD [3]: 2.5; solubility [4, 10]: > 200 µM
18 | CN1C(=O)c2ccc(Cl)cc2NC1C(=O)Nc1cccc(Cl)c1 (stereo not drawn) [Compound 19, 7‐Chloro‐N‐(3‐chlorophenyl)‐3‐methyl‐4‐oxo‐1,2,3,4‐tetrahydroquinazoline‐2‐carboxamide] | 80 nM | > 40000 nM | – | – | –
19 | CN1C(=O)c2ccc3cccnc3c2NC1(C)C(=O)Nc1cncc(Cl)c1 (stereo not drawn) [Compound 25, N‐(5‐Chloropyridin‐3‐yl)‐2,3‐dimethyl‐4‐oxo‐1,2,3,4‐tetrahydropyrido[3,2‐h]quinazoline‐2‐carboxamide] | 220 nM | > 40000 nM | – | – | –
20 | CN1C(=O)c2ccc(Cl)cc2N(C)C1(C)C(=O)Nc1cncc(Cl)c1 (stereo not drawn) [Compound 15, 7‐Chloro‐N‐(5‐chloropyridin‐3‐yl)‐1,2,3‐trimethyl‐4‐oxo‐1,2,3,4‐tetrahydroquinazoline‐2‐carboxamide] | 47 nM | > 40000 nM | – | – | –
21 | CN1C(=O)c2ccc(-c3cnn(C)c3)cc2NC1(C)C(=O)Nc1cncc(Cl)c1 (stereo not drawn) [Compound 32, N‐(5‐Chloropyridin‐3‐yl)‐2,3‐dimethyl‐7‐(1‐methyl‐1H‐pyrazol‐4‐yl)‐4‐oxo‐1,2,3,4‐tetrahydroquinazoline‐2‐carboxamide] | 198 nM | > 40000 nM | 5 µL/min/1e6 cells | 34 µL/min/mg | eLogD [3]: 2.9^[d]; solubility [4, 8]: 7 µM (≈ 2.88 µg/mL)
